Measured values published in patent publication US12428415B2, “Matriptase 2 inhibitors and uses thereof” (Disc Medicine, Inc., priority 2018, dated 2025).

Each compound was assayed against T1, Human Recombinant Matriptase 2 (Homo sapiens, UniProt Q8IU80) (assay: Matriptase 2 fluorescence based inhibition assay, Method B (50 mM TRIS pH 7.5, 150 mM NaCl, 0.01% gelatin)). Details: 1 uM compound; Assay Used = B.
T1 construct: purchased Enzo Life Sciences (an in-house preparation was also used) ALX-201-752-1
T1 sequence (Q8IU80 1-811): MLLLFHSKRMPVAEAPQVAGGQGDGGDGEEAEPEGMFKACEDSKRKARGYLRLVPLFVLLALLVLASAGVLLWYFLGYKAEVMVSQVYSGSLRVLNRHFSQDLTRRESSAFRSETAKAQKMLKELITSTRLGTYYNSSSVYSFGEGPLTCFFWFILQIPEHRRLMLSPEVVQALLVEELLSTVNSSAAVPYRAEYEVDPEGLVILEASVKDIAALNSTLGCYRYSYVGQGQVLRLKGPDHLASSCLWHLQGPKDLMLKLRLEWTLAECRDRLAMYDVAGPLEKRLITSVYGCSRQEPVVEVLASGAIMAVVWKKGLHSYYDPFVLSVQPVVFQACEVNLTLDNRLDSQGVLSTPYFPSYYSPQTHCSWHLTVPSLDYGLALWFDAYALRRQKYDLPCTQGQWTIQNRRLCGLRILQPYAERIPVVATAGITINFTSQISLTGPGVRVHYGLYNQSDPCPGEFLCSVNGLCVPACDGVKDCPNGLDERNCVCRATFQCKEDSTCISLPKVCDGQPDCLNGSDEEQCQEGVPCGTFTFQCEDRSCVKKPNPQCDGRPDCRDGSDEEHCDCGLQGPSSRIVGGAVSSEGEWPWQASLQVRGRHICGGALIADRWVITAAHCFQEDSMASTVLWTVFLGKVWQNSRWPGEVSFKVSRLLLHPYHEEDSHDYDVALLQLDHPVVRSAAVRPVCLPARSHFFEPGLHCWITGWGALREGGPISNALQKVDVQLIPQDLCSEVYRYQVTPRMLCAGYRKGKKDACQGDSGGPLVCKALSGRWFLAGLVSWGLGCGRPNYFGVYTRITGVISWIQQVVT
Type: biochemical
Experimental: Test compounds were evaluated for their potential to inhibit Human Recombinant Matriptase 2 (in-house and commercial protein from Enzo Life Sciences—cat log -ALX-201-752-1) using fluorescence based assay. The concentration of Recombinant Matriptase 2 and the substrate used in the assay was: 7 nM (commercial) and 15 nM (Inhouse Matriptase 2) and 100 μM (Boc-Gln-Ala-Arg-7-amido-4-methyl coumarin hydrobromide—Cat log: B4153-Sigma and I-1550 from Bachem) respectively. The assay buffer used was 50 mM TRIS pH 7.5, 150 mM NaCl, 0.01% gelatin (G1393 Sigma). The assay was performed using 384 well black flat bottom plate from grenier (Cat log: 781076) at 25° C. The enzyme and compound preincubated for 30 mins, plate was read 60 mins after substrate addition at wavelength Ex: 360/Em:480 nm. The final assay volume of was 20 μl. Stock solution of compounds were initially prepared in DMSO and appropriate dilutions were made for screening and IC50 determination (final DMSO conc in the assay was 1%). All the measurements were carried out using the Spectramax M5, Molecular devices. The compounds were screened at 1 and 10 μM concentration and IC50 was determined for the interested compounds.
To determine IC50 values, dose response curves were generated by plotting percentage inhibition as a function of inhibitor concentration and the data was fitted to sigmoidal non-linear regression equation (variable slope) using Graph Pad prism software V7.
For `N=C(N)c1ccc2cc(C(=O)O)n(-c3ccc4ccccc4c3)c2c1` [Compound I-488, 6-carbamimidoyl-1-(naphthalen-2-yl)-1H-indole-2-carboxylic Acid], the “Mar-2 % inhibition at 1 uM” value was “A (A represents 0%≤I≤25%)”.

Same assay, conditions: 1 uM compound; Assay Used = B (Method B); read-out: Mar-2 % inhibition at 1 uM
Compound `NCc1ccc2cc(C(=O)N[C@H]3CC[C@H](N)CC3)n(Cc3cc(S(=O)(=O)c4ccccc4)cc4ccccc34)c2c1` [Compound I-636] has an inhibition at 1 µM of 25 to 50%.
For `CCOC(=O)c1cc2ccc(/C(N)=N\O)cc2n1Cc1cc(Oc2ncccn2)cc2ccccc12` [Compound I-630, ethyl (Z)-6-(N′-hydroxycarbamimidoyl)-1-((3-(pyrimidin-2-yloxy)naphthalen-1-yl)methyl)-1H-indole-2-carboxylate], the inhibition at 1 µM was 0 to 25%.
`N=C(N)c1ccc2cc(C(=O)N[C@H]3CC[C@H](N)CC3)n(C[C@H]3CCc4ccccc43)c2c1` (racemic) [Compound I-616] gave an inhibition at 1 µM of 25 to 50%.
`N=C(N)c1ccc2cc(N3CCOCC3)n(Cc3cccc4ccccc34)c2c1` [Compound I-644, 2-morpholino-1-(naphthalen-1-ylmethyl)-1H-indole-6-carboximidamide] gave an inhibition at 1 µM of 25 to 50%.
With `N=C(N)c1ccc2cc(C(=O)N[C@H]3CC[C@H](N)CC3)n(Cc3ccc(COCc4ccccc4)c4ccccc34)c2c1` [Compound I-781] the inhibition at 1 µM was 75 to 100%.
Compound `N=C(N)c1ccc2cc(C(=O)O)n(Cc3c[nH]c4ccccc34)c2n1` [Compound I-667] has an inhibition at 1 µM of 25 to 50%.
Compound `N=C(N)c1ccc2cc(CC(=O)N[C@H]3CC[C@H](N)CC3)n(Cc3cccc4ccccc34)c2c1` [Compound I-717] has an inhibition at 1 µM of 75 to 100%.
`N=C(N)c1ccc2cc(C(=O)O)n(Cc3cc(Oc4cnccn4)cc4ccccc34)c2c1` [Compound I-625] showed an inhibition at 1 µM of 50 to 75%.
Work on `N=C(N)c1ccc2cc(C(=O)O)n(Cc3cccc4ccc(Oc5ccccc5)cc34)c2c1` [Compound I-680] yielded an inhibition at 1 µM of 25 to 50%.
Compound `N=C(N)c1ccc2cc(C(=O)N[C@H]3CC[C@H](N)CC3)n(Cc3cc(Sc4ccccc4)cc4ccccc34)c2c1` [Compound I-725] has an inhibition at 1 µM of 75 to 100%.
With `CCn1c(C(=O)N[C@H]2CC[C@H](N)CC2)c(Cc2cccc3ccccc23)c2cc(C(=N)NN)ccc21` [Compound I-664] the inhibition at 1 µM was 0 to 25%.
`CS(=O)(=O)Oc1cc(Cn2c(C(=O)O)cc3ccc(C(=N)N)cc32)c2ccccc2c1` [Compound I-623] gave an inhibition at 1 µM of 50 to 75%.
Compound `CCOC(=O)c1cc2ccc(C(=N)N)cc2n1Cc1cccc2ccccc12` [Compound I-601] has an inhibition at 1 µM of 50 to 75%.
`N=C(N)c1ccc2cc(-c3nccs3)n(Cc3cccc4ccccc34)c2c1` [Compound I-750, 1-(naphthalen-1-ylmethyl)-2-(thiazol-2-yl)-1H-indole-6-carboximidamide] showed an inhibition at 1 µM of 50 to 75%.
`N=C(N)c1ccc2cc(C(=O)N[C@H]3CC[C@H](N)CC3)n(Cc3cccc4cc(-c5ccccc5)ccc34)c2c1` [Compound I-768] showed an inhibition at 1 µM of 75 to 100%.

Same assay, conditions: 1 uM compound; Assay Used = B; read-out: Mar-2 % inhibition at 1 uM
For `N=C(N)c1ccc2cc(C(=O)NCCS(N)(=O)=O)n(Cc3cc(Oc4ncccn4)cc4ccccc34)c2c1` [Compound I-547], the inhibition at 1 µM was 75 to 100%.
`N=C(N)c1ccc2c(N)c(C(=O)N[C@H]3CC[C@H](N)CC3)n(Cc3cccc4ccccc34)c2c1` [Compound I-511, 3-amino-N-((1r,4r)-4-aminocyclohexyl)-6-carbamimidoyl-1-(naphthalen-1-ylmethyl)-1H-indole-2-carboxamide] showed an inhibition at 1 µM of 75 to 100%.
Compound `CN1CCC(NC(=O)c2cc3ccc(C(=N)N)cc3n2Cc2cc(Oc3ncccn3)cc3ccccc23)CC1` [Compound I-594] has an inhibition at 1 µM of 75 to 100%.
Compound `COC(=O)NCCOC(=O)c1cc2ccc(C(=N)N)cc2n1Cc1cc(Oc2ncccn2)cc2ccccc12` [Compound I-583] has an inhibition at 1 µM of 75 to 100%.
`COc1ccc2c(Cn3c(C(=O)N[C@H]4CC[C@H](N)CC4)cc4ccc(C(=N)N)cc43)cccc2c1` [Compound I-506] was tested, and the inhibition at 1 µM was 75 to 100%.
`N=C(N)c1ccc2cc(C(=O)NCCCN)n(Cc3cccc4ccccc34)c2c1` [Compound I-466] showed an inhibition at 1 µM of 75 to 100%.
For `COC(=O)NCCNC(=O)c1cc2ccc(C(=N)N)cc2n1Cc1cccc2ccccc12` [Compound I-587], the inhibition at 1 µM was 75 to 100%.
`N=C(N)c1ccc2cc(C(=O)N[C@H]3CC[C@H](N)CC3)n(C(C(=O)O)c3cccc4ccccc34)c2c1` (some centres unmarked) [Compound I-502] gave an inhibition at 1 µM of 0 to 25%.
In the case of `N=C(N)c1ccc2cc(C(=O)Nc3ccc(NC(=O)c4ccccn4)cc3)n(Cc3cccc4ccccc34)c2c1` [Compound I-430], the inhibition at 1 µM is reported as 50 to 75%.
Work on `N=C(N)c1ccc2nc(C(=O)N[C@H]3CC[C@H](N)CC3)n(Cc3cccc4ccccc34)c2c1` [Compound I-542, N-((1r,4r)-4-aminocyclohexyl)-6-carbamimidoyl-1-(naphthalen-1-ylmethyl)-1H-benzo[d]imidazole-2-carboxamide] yielded an inhibition at 1 µM of 75 to 100%.
`NC(=O)c1ccc2cc(C(=O)N[C@H]3CC[C@H](N)CC3)n(-c3cccc4ccccc34)c2c1` [Compound I-417, N2-((1r,4r)-4-aminocyclohexyl)-1-(naphthalen-1-yl)-1H-indole-2,6-dicarboxamide] was tested, and the inhibition at 1 µM was 0 to 25%.
`N=C(N)c1ccc2cc(C(=O)N[C@H]3CC[C@H](N)CC3)n(Cc3c(Cl)cccc3Cl)c2c1` [Compound I-503] was tested, and the inhibition at 1 µM was 0 to 25%.
In the case of `Cn1nc(C(F)(F)F)c(C=O)c1Oc1cc(Cn2c(C(=O)O)cc3ccc(C(=N)N)cc32)c2ccccc2c1` [Compound I-584], the inhibition at 1 µM is reported as 0 to 25%.
With `N=C(N)c1ccc2c(C=O)c(C(=O)N[C@H]3CC[C@H](N)CC3)n(Cc3cccc4ccccc34)c2c1` [Compound I-515, N-((1r,4r)-4-aminocyclohexyl)-6-carbamimidoyl-3-formyl-1-(naphthalen-1-ylmethyl)-1H-indole-2-carboxamide] the inhibition at 1 µM was 25 to 50%.
Work on `N=C(N)c1ccc2cc(C(=O)N[C@H]3CC[C@H](N)CC3)n(Cc3cncc4ccccc34)c2c1` [Compound I-507] yielded an inhibition at 1 µM of 50 to 75%.
`CC(C)(C)OC(=O)NC(=N)c1ccc2cc(C(=O)N3CCC(CO)CC3)n(Cc3cccc4ccccc34)c2c1` [Compound I-426] was tested, and the inhibition at 1 µM was 0 to 25%.
With `N=C(N)c1ccc2cc(C(=O)NC3CCNC(=O)C3)n(Cc3cccc4ccccc34)c2c1` (centres unmarked) [Compound I-477] the inhibition at 1 µM was 50 to 75%.
`COC(=O)c1cc2ccc(C(=N)N)cc2n1Cc1cccc2ccccc12` [Compound I-486, Methyl 6-carbamimidoyl-1-(naphthalen-1-ylmethyl)-1H-indole-2-carboxylate] gave an inhibition at 1 µM of 25 to 50%.

Same assay, conditions: 1 uM; Assay Used B; read-out: Mar-2 % inhibition at 1 uM
`N=C(N)c1ccc2cc(C(=O)N[C@H]3CC[C@H](N)CC3)n(S(=O)(=O)c3ccc4ccccc4c3)c2c1` [Compound I-37] showed an inhibition at 1 µM of 0 to 25%.

Same assay, conditions: at 1 uM; Assay Used = B; read-out: Mar-2 % inhibition at 1 uM
In the case of `N=C(N)c1ccc2cc(C(=O)N[C@H]3CC[C@H](N)CC3)n(Cc3ccc4ccccc4c3)c2c1` [Compound I-233], the inhibition at 1 µM is reported as 25 to 50%.

Same assay, conditions: compound at 1 uM; Assay Used: B; read-out: Mar-2 % inhibition at 1 uM
In the case of `CN(C)C(=O)c1ccc(Cn2c(C(=O)N[C@H]3CC[C@H](N)CC3)cc3ccc(C(=N)N)cc32)c2ccccc12` [Compound I-798], the inhibition at 1 µM is reported as 50 to 75%.
In the case of `N=C(NN)c1ccc2cc(C(=O)N[C@H]3CC[C@H](N)CC3)n(Cc3cccc4ccccc34)c2c1` [Compound I-827, N-((1r,4r)-4-aminocyclohexyl)-6-(hydrazineyl(imino)methyl)-1-(naphthalen-1-ylmethyl)-1H-indole-2-carboxamide], the inhibition at 1 µM is reported as 25 to 50%.
Work on `N=C(N)c1ccc2cc(C(=O)N[C@H]3CC[C@H](N)CC3)n(Cc3cccc4sc(C(=O)O)cc34)c2c1` [Compound I-815, 4-((2-(((1r,4r)-4-aminocyclohexyl)carbamoyl)-6-carbamimidoyl-1H-indol-1-yl)methyl) benzo[b]thiophene-2-carboxylic Acid] yielded an inhibition at 1 µM of 50 to 75%.
In the case of `N/C(=N\O)c1ccc2cc(C(=O)NC3CCNCC3)n(Cc3cccc4ccccc34)c2c1` [Compound I-809], the inhibition at 1 µM is reported as 25 to 50%.

Same assay, conditions: read-out: Mar-2 % inhibition at 1 uM
Work on `CN1CCC(NC(=O)c2cc3ccc(C(=N)NC(=O)Oc4ccccc4)cc3n2Cc2cccc3ccccc23)CC1` [Compound I-782] yielded an inhibition at 1 µM of 50 to 75%.
